Patent US10513519B2, “Solid forms of (1S,4S)-4-(2-(((3S,4R)-3-fluorotetrahydro-2H-pyran-4-yl)amino)-8-((2,4,6-trichlorophenyl)amino)-9H-purin-9-yl)-1-methylcyclohexane-1-carboxamide and methods of their use” (Signal Pharmaceuticals, LLC, priority 2016, dated 2019)

Test system: cancer cell lines
Test: Multiplexed cytotoxicity assay: cell proliferation (relative cell count IC50, GI50)
Type: cell-based
Procedure: (§1) Cells are grown in RPMI1640, 10% FBS, 2 mM L-alanyl-L-Glutamine, 1 mM Na pyruvate or a special medium in a humidified atmosphere of 5% CO2 at 37° C. Cells are seeded into 384-well plates and incubated in a humidified atmosphere of 5% CO2 at 37° C. Compounds are added 24 h post cell seeding. At the same time, a time zero untreated cell plate is generated. After a 72 hour incubation period, cells are fixed and stained with fluorescently labeled antibodies and nuclear dye to allow visualization of nuclei, apoptotic cells and mitotic cells. Apoptotic cells are detected using an anti-active caspase-3 antibody. Mitotic cells are detected using an anti phospho-histone-3 antibody. Compounds are serially diluted 3.16-fold and assayed over 10 concentrations in a final assay concentration of 0.1% DMSO from the highest test concentration of 10 μM. Automated fluorescence microscopy was carried out using a Molecular Devices ImageXpress Micro XL high-content imager, and images are collected with a 4× objective.
Sixteen-bit TIFF images are acquired and analyzed with MetaXpress 5.1.0.41 software. Cell proliferation is measured by the signal intensity of the incorporated nuclear dye. The cell proliferation assay output is referred to as the relative cell count. To determine the cell proliferation end point, the cell proliferation data output is transformed to percentage of control (POC) using the following formula: POC=relative cell count(compound wells)/relative cell count(vehicle wells)×100
GI50 is the concentration needed to reduce the observed growth by half. This is the concentration that inhibits the growth to the level midway between growth in untreated cells and the number of cells seeded in the well (Time zero value). The IC50 values are calculated using nonlinear regression to fit data to a sigmoidal 4 point, 4 parameter One-Site dose response model, where: y(fit)=A+[(B−A)/(1+((C/x)^D))].
as §1, with “In another experiment, cells were grown” for “Cells are grown”, “Cells were” for “Cells are”, “Compounds were” for “Compounds are”, “plate was” for “plate is”, “cells were” for “cells are”, “images were” for “images are”
Sixteen-bit TIFF images were acquired and analyzed with MetaXpress 5.1.0.41 software. Cell proliferation was measured by the signal intensity of the incorporated nuclear dye. The cell proliferation assay output was referred to as the relative cell count. To determine the cell proliferation end point, the cell proliferation data output was transformed to percentage of control (POC) using the following formula: POC=relative cell count(compound wells)/relative cell count(vehicle wells)×100
GI50 refers to the concentration needed to reduce the observed growth by half. This corresponds to the concentration that inhibits the growth to the level midway between growth in untreated cells and the number of cells seeded in the well (Time zero value). The IC50 values were calculated using nonlinear regression to fit data to a sigmoidal 4 point, 4 parameter One-Site dose response model, where: y(fit)=A+[(B−A)/(1+((C/x)^D))].

[1] = Homo sapiens, SK-N-AS, 72 h, SKNAS, CNS, Neuroblastoma
[2] = Homo sapiens, SK-N-DZ, 72 h, SKNDZ, CNS, Neuroblastoma
[3] = Homo sapiens, SK-N-FI, 72 h, SKNFI, CNS, Neuroblastoma
[4] = Homo sapiens, SK-NEP-1, SKNEP1 (Kidney)
[5] = Homo sapiens, SK-OV-3, 72 h, SKOV3, Female GU, Ovary, 72 h
[6] = Homo sapiens, SK-UT-1, 72 h, SKUT1, Soft Tissue, Sarcoma, 72 h
[7] = Homo sapiens, SNB-19, SNB19 (CNS, Glioma)
[8] = Homo sapiens, SNU1, 72 h, SNU1, Stomach, 72 h
[9] = Homo sapiens, SNU-5, 72 h, SNU5, Stomach, 72 h
[10] = Homo sapiens, SNU-16, 72 h, SNU16, Stomach, 72 h
[11] = Homo sapiens, SNU-423, SNU423 (Liver)
[12] = Homo sapiens, SNU-C2B, SNUC2B (Colon)
[13] = Homo sapiens, ST486, ST486 (Hematopoietic and lymphoid, Lymphoma)
[14] = Homo sapiens, SU-DHL10, SUDHL10 (Hematopoietic and lymphoid, Lymphoma)
[15] = Homo sapiens, SU-DHL-4, SUDHL4 (Hematopoietic and lymphoid, Lymphoma)
[16] = Homo sapiens, SU-DHL-5, SUDHL5 (Hematopoietic and lymphoid, Lymphoma)
[17] = Homo sapiens, SU-DHL-8, SUDHL8 (Hematopoietic and lymphoid, Lymphoma)
[18] = Homo sapiens, SU.86.86, 72 h, SU8686, Pancreas, 72 h
[19] = Homo sapiens, SUP-T1, SUPT1 (Hematopoietic and lymphoid, Lymphoma)
[20] = Homo sapiens, SW13, SW13 (Endocrine, Adrenal gland)
[21] = Homo sapiens, SW48, SW48 (Colon)
[22] = Homo sapiens, SW480, SW480 (Colon)
[23] = Homo sapiens, SW684, 72 h, SW684, Soft Tissue, Sarcoma, 72 h
[24] = Homo sapiens, SW837, SW837 (Colon)
[25] = Homo sapiens, SW872, 72 h, SW872, Soft Tissue, Sarcoma, 72 h
[26] = Homo sapiens, SW900, 72 h, SW900, Lung, SCLC, 72 h
[27] = Homo sapiens, SW948, SW948 (Colon)
[28] = Homo sapiens, SW 954, 72 h, SW954, Female GU, Vulva, 72 h
[29] = Homo sapiens, SW 962, 72 h, SW962, Female GU, Vulva, 72 h
[30] = Homo sapiens, SW982, 72 h, SW982, Soft Tissue, Sarcoma, 72 h
[31] = Homo sapiens, SW1088, SW1088 (CNS, Glioma)
[32] = Homo sapiens, SW1353, 72 h, SW1353, Soft Tissue, Osteosarcoma, 72 h
[33] = Homo sapiens, SW1417, SW1417 (Colon)
[34] = Homo sapiens, SW1463, SW1463 (Colon)
[35] = Homo sapiens, SW1783, SW1783 (CNS, Glioma)
[36] = Homo sapiens, SW-403, SW403 (Colon)
[37] = Homo sapiens, SW-620, SW620 (Colon)
[38] = Homo sapiens, SiHa, SIHA (Female GU, Cervix)
[39] = Homo sapiens, T47D, T47D (Breast)
[40] = Homo sapiens, T98G, T98G (CNS, Glioma)
[41] = Homo sapiens, TCC-SUP, TCCSUP (Bladder)
[42] = Homo sapiens, THP-1, THP1 (Hematopoietic and lymphoid, Leukemia)
[43] = Homo sapiens, U2OS, 72 h, Soft Tissue, Osteosarcoma
[44] = Homo sapiens, U138-MG, U138MG (CNS, Glioma)
[45] = Homo sapiens, U-87 MG, U87MG (CNS, Glioma)
[46] = Homo sapiens, U-118-MG, U118MG (CNS, Glioma)
[47] = Homo sapiens, UMUC3, UMUC3 (Bladder)
[48] = Homo sapiens, WM 266-4, 72 h, WM2664, Skin, Melanoma, 72 h
[49] = Homo sapiens, WiDr, WIDR (Colon)
[50] = Homo sapiens, YAPC, 72 h, Pancreas
[51] = Homo sapiens, ZR-75-1, ZR751 (Breast)
[52] = Hs 445, HS445 (Hematopoietic and lymphoid, Lymphoma)
[53] = KG1 (Hematopoietic and lymphoid, Leukemia)
[54] = KHOS-240S, 72 h, KHOS240S, Soft Tissue, Osteosarcoma
[55] = MS751, 72 h, MS751, Female GU, Ovary, 72 h
[56] = MX1 (Hematopoietic and lymphoid, Leukemia)
[57] = NAMALWA (Hematopoietic and lymphoid, Lymphoma)
[58] = OE21, 72 h, OE21, Head and Neck, Esophageal, 72 h
[59] = RAMOSRA1 (Hematopoietic and lymphoid, Lymphoma)
[60] = SKO-007, 72 h, SKO007, Hematopoietic and lymphoid, Myeloma, 72 h
[61] = SR (Hematopoietic and lymphoid, Lymphoma)
[62] = SW579, 72 h, SW579, Endocrine, Thyroid, 72 h
[63] = TE 381.T, 72 h, TE381T, Soft Tissue, Sarcoma
[64] = TF1 (Hematopoietic and lymphoid, Leukemia)
[65] = TUR (Hematopoietic and lymphoid, Lymphoma)

C[C@]1(C(N)=O)CC[C@@H](n2c(Nc3c(Cl)cc(Cl)cc3Cl)nc3cnc(N[C@@H]4CCOC[C@H]4F)nc32)CC1 [Compound 1, cis-4-[2-{[(3S,4R)-3-fluorooxan-4-yl]amino}-8-(2,4,6-trichloroanilino)-9H-purin-9-yl]-1-methylcyclohexane-1-carboxamide]
GI50 [1]: 48.9 nM
IC50 [1]: 132 nM
GI50 [2]: 7400 nM
IC50 [2]: > 10000 nM
GI50 [3]: 15.1 nM
IC50 [3]: 135 nM
GI50 [4]: > 10000 nM
IC50 [4]: > 10000 nM
GI50 [5]: 547 nM
IC50 [5]: > 10000 nM
GI50 [6]: > 10000 nM
IC50 [6]: > 10000 nM
GI50 [7]: 163 nM
IC50 [7]: 244 nM
GI50 [8]: 35.5 nM
IC50 [8]: 63.1 nM
GI50 [9]: 36.8 nM
IC50 [9]: 94.3 nM
GI50 [10]: > 10000 nM
IC50 [10]: > 10000 nM
GI50 [11]: 192 nM
IC50 [11]: 276 nM
GI50 [12]: 54.4 nM
IC50 [12]: 722 nM
GI50 [13]: 5020 nM
IC50 [13]: 6140 nM
GI50 [14]: 1230 nM
IC50 [14]: 1400 nM
GI50 [15]: 168 nM
IC50 [15]: 332 nM
GI50 [16]: 1.1 nM
IC50 [16]: 1.3 nM
GI50 [17]: 19.3 nM
IC50 [17]: 40.6 nM
GI50 [18]: 63.5 nM
IC50 [18]: 132 nM
GI50 [19]: 19.6 nM
IC50 [19]: 46.6 nM
GI50 [20]: 71.1 nM
IC50 [20]: 135 nM
GI50 [21]: 1.8 nM
IC50 [21]: 3.1 nM
GI50 [22]: 18.4 nM
IC50 [22]: 31.1 nM
GI50 [23]: 86.9 nM
IC50 [23]: 370 nM
GI50 [24]: 172 nM
IC50 [24]: 348 nM
GI50 [25]: 105 nM
IC50 [25]: 136 nM
GI50 [26]: 21.6 nM
IC50 [26]: 39.9 nM
GI50 [27]: 195 nM
IC50 [27]: 327 nM
GI50 [28]: 114 nM
IC50 [28]: 142 nM
GI50 [29]: 82.8 nM
IC50 [29]: 232 nM
GI50 [30]: 15.6 nM
IC50 [30]: 61.4 nM
GI50 [31]: 3350 nM
IC50 [31]: 5980 nM
GI50 [32]: 184 nM
IC50 [32]: 292 nM
GI50 [33]: 8.8 nM
IC50 [33]: 35.1 nM
GI50 [34]: 135 nM
IC50 [34]: 181 nM
GI50 [35]: 5920 nM
IC50 [35]: 9850 nM
GI50 [36]: 47.6 nM
IC50 [36]: 173 nM
GI50 [37]: 49.2 nM
IC50 [37]: 79.8 nM
GI50 [38]: > 10000 nM
IC50 [38]: > 10000 nM
GI50 [39]: > 10000 nM
IC50 [39]: > 10000 nM
GI50 [40]: > 10000 nM
IC50 [40]: > 10000 nM
GI50 [41]: 2210 nM
IC50 [41]: 6590 nM
GI50 [42]: 25.1 nM
IC50 [42]: 49.5 nM
GI50 [43]: 230 nM
IC50 [43]: 373 nM
GI50 [44]: 53 nM
IC50 [44]: > 10000 nM
GI50 [45]: 69.2 nM
IC50 [45]: 101 nM
GI50 [46]: 175 nM
IC50 [46]: > 10000 nM
GI50 [47]: 149 nM
IC50 [47]: 201 nM
GI50 [48]: 12 nM
IC50 [48]: 35.4 nM
GI50 [49]: 10.4 nM
IC50 [49]: 13.3 nM
GI50 [50]: 183 nM
IC50 [50]: 670 nM
GI50 [51]: 94.3 nM
IC50 [51]: 7700 nM
GI50 [52]: 14.3 nM
IC50 [52]: 37.7 nM
GI50 (Hs766T, 72 h, Pancreas): 34.3 nM
IC50 (Hs766T, 72 h, Pancreas): 79.3 nM
GI50 (J82 (Bladder)): > 10000 nM
IC50 (J82 (Bladder)): > 10000 nM
GI50 [53]: 1.7 nM
IC50 [53]: 32.5 nM
GI50 [54]: > 10000 nM
IC50 [54]: > 10000 nM
GI50 (KPL-1, KPL1 (Breast)): > 10000 nM
IC50 (KPL-1, KPL1 (Breast)): > 10000 nM
GI50 [55]: 6910 nM
IC50 [55]: 9510 nM
GI50 (MT3 (Breast)): 674 nM
IC50 (MT3 (Breast)): 1080 nM
GI50 [56]: 40.1 nM
IC50 [56]: 61.9 nM
GI50 [57]: 18.1 nM
IC50 [57]: 23.9 nM
GI50 (OCUG-1, OCUG1 (Liver)): 464 nM
IC50 (OCUG-1, OCUG1 (Liver)): 1290 nM
GI50 [58]: 93.9 nM
IC50 [58]: 124 nM
GI50 [59]: 3660 nM
IC50 [59]: 3840 nM
GI50 (RKO (Colon)): 35.3 nM
IC50 (RKO (Colon)): 40.5 nM
GI50 (RKOAS451, RKOAS451 (Colon)): 40.5 nM
IC50 (RKOAS451, RKOAS451 (Colon)): 44.9 nM
GI50 (SH4 (Skin, Melanoma)): 20.8 nM
IC50 (SH4 (Skin, Melanoma)): 29 nM
GI50 [60]: 27.4 nM
IC50 [60]: 482 nM
GI50 [61]: 1420 nM
IC50 [61]: 1840 nM
GI50 [62]: 47.7 nM
IC50 [62]: 70.8 nM
GI50 (T24 (Bladder)): 233 nM
IC50 (T24 (Bladder)): 274 nM
GI50 [63]: 7.6 nM
IC50 [63]: 12.8 nM
GI50 [64]: 1.5 nM
IC50 [64]: 9.5 nM
GI50 [65]: 41.5 nM
IC50 [65]: 53.9 nM
GI50 (Y79 (Eye-retinoblastoma, Eye)): > 10000 nM
IC50 (Y79 (Eye-retinoblastoma, Eye)): > 10000 nM
